Entries after “also recorded” stand apart in the source; their conditions may differ.
Assays:
[1] = system: CSV, ABCB5, EGFR, FOXQ1, E-Cadherin in MDA-MB-231-Br cells; test: High resolution digital pathology of mesenchymal/epithelial markers, MDA-MB-231-Br; format: cell-based, human
Experimental: To examine the signature of CD8, CSV, EGFR, ABCB5, FOXQ1, commercial PD-L1-28-8, nuclear PD-L1, cytoplasmic PDL1 in MDA-MB-231 TNBC cells/TNBC brain cancer clone cells (untreated or treated with bicyclic inhibitors targeting nuclear PD-L1-PTM1). MDA-MB-231/MDA-MB-231-Br cells were permeabilised by incubating with 0.5% Triton X-100 for 15 min, blocked with 1% BSA in PBS and were probed with either CSV (Mouse host), CD8 (mouse host), EGFR (Rabbit host), ABCB5 (Goat Host), ALDH1A (Rabbit Host), NODAL (Goat Host), nuclear PDL1 (rabbit host), cytoplasmic PD-L1 (rabbit host) visualized with a donkey anti-rabbit AF 488, anti-mouse AF 568, donkey anti-goat 647. […] Digital images were analyzed using automated ASI software (Applied Spectral Imaging, Carlsbad, CA) to determine the distribution and intensities automatically with automatic thresholding and background correction of the average nuclear fluorescence intensity (NFI), allowing for the specific targeting of expression of proteins of interest. Digital images were also analysed using ImageJ software (ImageJ, NIH, Bethesda, MD, USA) to determine the total cell fluorescence or cell surface only fluorescence for non-permeabilised cells. Digital images were analysed using ImageJ software (ImageJ, NIH, Bethesda, MD, USA) to determine either the Total Nuclear Fluorescent Intensity (TNFI), the Total Cytoplasmic Fluorescent Intensity (TCFI). […]

MDA-MB-231 cells = test: WST-1 cell proliferation assay, MDA-MB-231; format: cell-based, human; conditions: for inhibition of proliferation: MDA-MB-231, WST-1, 72 hours
Experimental: MDA-MB-231 cells were seeded at 4×10^3 cells/well into a 96-well flat bottom tissue culture plate in a final volume of 100 ul and left to adhere for 24 hours at 37° C. and 5% CO2. Cells were then treated with inhibitors for 72 hours at a final concentration of 200, 100, 50, 25, 12.5 or 6.25 μM. Following inhibition, media was removed and replaced with 100 μL/well of WST-1 cell proliferation reagent (Sigma-Aldrich, Cat# 11644807001) at 1:10 final dilution. Absorbance was recorded at 450 nm at 1, 2, 3, and 4 hour incubation periods using a microplate spectrophotometer (with 30 sec mix time). Data represent a single independent experiment performed in triplicate, results are graphed as mean +/− standard error (SE).
(§1) (A) CT26, 4T1 or MDA-MB-231 Cells were treated with inhibitors for 72 hours. Following inhibition, media was removed and replaced with WST-1 cell proliferation reagent. Absorbance was recorded at 450 nm after 1 hour. Data represent a single independent experiment performed in triplicate. Results are graphed as mean +/− standard error (SE). B) MDA-MB-231 or CT26 cancer cells were treated with vehicle control, DL-2-Batch 1 (original stock), DL-2-Batch 2 (current stock), DL-2-TBAB or linear PDL1. Cells were permeabilised and were probed with the DUOLINK ligation assay. Cover slips were mounted on glass microscope slides with ProLong nucblue glass Antifade reagent (Life Technologies). PDL1Ac and IMPα1 DUOLINK Digital images were analysed using ImageJ software (ImageJ, NIH, Bethesda, MD, USA) and graphs represent the mean DOT Fluorescent Intensity in the nucleus or the cytoplasm compartments with significant differences calculated as per one-way ANOVA comparison. (C) MDA-MB-231 or CT26 cancer cells were treated with vehicle control, DL-2-Batch 1 (Original stock), DL-2-Batch 2 (current stock), DL-2-TBAB or linear PDL1. Cells were permeabilised and were probed with the DUOLINK ligation assay. Cover slips were mounted on glass microscope slides with ProLong nucblue glass Antifade reagent (Life Technologies). PDL1-unmodified and IMPα1 DUOLINK digital images were analysed using ImageJ software (ImageJ, NIH, Bethesda, MD, USA) and graphs represent the mean DOT fluorescent intensity in the nucleus or the cytoplasm compartments with significant differences calculated as per one-way ANOVA comparison.
(§2) 4T1, CT26 or MDA-MB-231 cancer cell lines were treated with DL-2 or DL-2-D bicyclic inhibitors for 72 hours. Following inhibition, media was removed and replaced with WST-1 cell proliferation reagent. Absorbance was recorded at 450 nm after 1 hour. Data represent a single independent experiment performed in triplicate; results are graphed as mean +/− standard error (SE).
Cells weretreated with inhibitors for 48 hours. Following inhibition, media was removed and replaced with WST-1 cell proliferation reagent. Absorbance was recorded at 450 nm after 1 hour.

MDA-MB-231-Br cells = test: WST-1 cell proliferation assay, MDA-MB-231-Br; format: cell-based, human
CT26 cells = test: WST-1 cell proliferation assay, CT26; format: cell-based, mouse; conditions: CT26, WST-1, 72 hours
Experimental: as §1, §2

Structure (SMILES): CCCCCCCCCCCCCC(=O)NC(C)C(=O)NC1CSCc2cc3cc(c2)CSC[C@H](NC(=O)[C@H](Cc2ccccc2)NC(=O)[C@H](C(C)CC)NC(=O)[C@H](Cc2ccccc2)NC(=O)[C@H]([C@@H](C)O)NC(=O)C(CC(C)C)NC1=O)C(=O)N[C@@H](CCCNC(C)=N)C(=O)N[C@@H](CC(C)C)C(=O)N[C@@H](CCCNC(=N)N)C(=O)N[C@@H](CCCCN)C(=O)NCC(=O)N[C@@H](CCCNC(=N)N)C(=O)NC(C(=O)N[C@@H](CCSC)C(=O)NC(CCSC)C(=O)N[C@@H](CC(=O)O)C(=O)NC(C(=O)N[C@@H](CCCCN)C(=O)NC(CCCCN)C(=O)O)C(C)C)CSC3 (mixture of isomers) [DL-2]
- expression of the epithelial marker E-Cadherin [1]: able to induce expression
- mesenchymal stem-like resistant protein markers (CSV, ABCB5, EGFR, FOXQ1) ([1]; vs vehicle control): significantly inhibit
- inhibition of proliferation (MDA-MB-231 cells): able to inhibit proliferation; also recorded: significantly inhibit the proliferation
- inhibition of proliferation (MDA-MB-231 cells; listed as DL-2-TBMB): able to effectively inhibit the proliferation
- potency of proliferation inhibition relative to DL-1 (MDA-MB-231 cells; MDA-MB-231, higher potency than DL-1): 2-3 fold
- inhibition of proliferation (MDA-MB-231-Br cells; WST-1): able to inhibit proliferation
- potency of proliferation inhibition relative to DL-1 (MDA-MB-231-Br cells; higher potency than DL-1): 2-3 fold
- inhibition of proliferation (CT26 cells): significantly inhibit the proliferation
- inhibition of proliferation (CT26 cells; listed as DL-2-TBMB): able to effectively inhibit the proliferation

Source: patent publication US20240117005A1, “NOVEL BICYCLIC PEPTIDES” (THE COUNCIL OF THE QUEENSLAND INSTITUTE OF MEDICAL RESEARCH, priority 2021, published 2024)
